Common to all, as to format: in vivo
Test [1] concerns Zea mays (ZEAMX). The test is described as follows: Pre-emergence herbicidal glasshouse test. To be noted: evaluated after 13 days, five-point scale.
The test system of test [2] is Ipomoea hederacea (IPOHE). Kind of test: Pre-emergence herbicidal glasshouse test. To be noted: evaluated after 13 days, five-point scale.
Test [3] concerns Echinochloa crus-galli (ECHCG). Kind of test: Post-emergence herbicidal glasshouse test. To be noted: sprayed after 8 days cultivation, evaluated after 13 days, five-point scale. As for the experimental part: (§1) Seeds of a variety of test species are sown in standard soil in pots (Ipomoea hederacea (IPOHE), Setaria faberi (SETFA), Zea mays (ZEAMX), Echinochloa crus-galli (ECHCG), Amaranthus palmeri (AMAPA), Amaranthus retoflexus (AMARE)). After 8 days cultivation under controlled conditions in a glasshouse (at 24° C./16° C., day/night; 14 hours light; 65% humidity), the plants are sprayed with an aqueous spray solution derived from the formulation of the technical active ingredient in acetone/water (50:50) solution containing 0.5% Tween 20 (polyoxyethelyene sorbitan monolaurate, CAS RN 9005-64-5). Compounds are applied at 1000 g/ha unless otherwise stated. The test plants are then grown in a glasshouse under controlled conditions in a glasshouse (at 24° C./16° C., day/night; 14 hours light; 65% humidity) and watered twice daily. After 13 days the test is evaluated for the percentage damage caused to the plant. The biological activities are shown in the following table on a five-point scale (5=81-100%; 4=61-80%; 3=41-60%; 2=21-40%; 1=0-20%; -=not tested).

The subject of test [4] is Setaria faberi (SETFA). The test is described as follows: Post-emergence herbicidal glasshouse test. The conditions noted are these: sprayed after 8 days cultivation, evaluated after 13 days, five-point scale. As for the experimental part: as §1
The test system of test [5] is Zea mays (ZEAMX). The test is described as follows: Post-emergence herbicidal glasshouse test. The conditions noted are these: sprayed after 8 days cultivation, evaluated after 13 days, five-point scale. The procedure:
as §1

Test [6] has as its system Ipomoea hederacea (IPOHE). Kind of test: Post-emergence herbicidal glasshouse test. The conditions noted are these: sprayed after 8 days cultivation, evaluated after 13 days, five-point scale. As for the experimental part: as §1
For test [7], the system named is Echinochloa crus-galli (ECHCG). The test is described as follows: Pre-emergence herbicidal glasshouse test. To be noted: evaluated after 13 days, five-point scale.
Test [8] has as its system Setaria faberi (SETFA). The test is described as follows: Pre-emergence herbicidal glasshouse test. To be noted: evaluated after 13 days, five-point scale.
Test [9] concerns Amaranthus retoflexus (AMARE). The test is described as follows: Pre-emergence herbicidal glasshouse test. The conditions noted are these: evaluated after 13 days, five-point scale.
Test [10] relates to Amaranthus retoflexus (AMARE). The test is described as follows: Post-emergence herbicidal glasshouse test. To be noted: sprayed after 8 days cultivation, evaluated after 13 days, five-point scale. As for the experimental part: as §1
Test [11] relates to Amaranthus palmeri (AMAPA). The test is described as follows: Post-emergence herbicidal glasshouse test. To be noted: sprayed after 8 days cultivation, evaluated after 13 days, five-point scale. The procedure:
as §1

Test [12] concerns Amaranthus palmeri (AMAPA). Kind of test: Pre-emergence herbicidal glasshouse test. To be noted: evaluated after 13 days, five-point scale.

With `CCn1c(C)c(-n2ccc(Cl)n2)c(=O)c(C(=O)O)c1-c1ccc(Cl)c(Cl)c1` [Compound 2, 5-(3-chloropyrazol-1-yl)-2-(3,4-dichlorophenyl)-1-ethyl-6-methyl-4-oxo-pyridine-3-carboxylic acid], the “percentage damage caused to the plant, ZEAMX” value with Zea mays (ZEAMX) [1] (1000 g/ha) is reported as 1 (1=0-20%); with Zea mays (ZEAMX) [5] (1000 g/ha) it was 3 (3=41-60%). Besides, the “percentage damage caused to the plant, IPOHE” value in test [2] (1000 g/ha) and in test [6] (1000 g/ha) was 4 (4=61-80%) throughout. For the same molecule, the “percentage damage caused to the plant, ECHCG” value in [3] (1000 g/ha) is on record as 4 (4=61-80%); in [7] (1000 g/ha), 0. Further, the “percentage damage caused to the plant, SEFTA” value is 4 (4=61-80%) in the test with Setaria faberi (SETFA) [4] (1000 g/ha) and 3 (3=41-60%) in the test with Setaria faberi (SETFA) [8] (1000 g/ha).
Take `CCn1c(C)c(-n2ccc(C(F)(F)F)n2)c(=O)c(C(=O)O)c1-c1ccc(Cl)c(Cl)c1` [Compound 1, 2-(3,4-dichlorophenyl)-1-ethyl-6-methyl-4-oxo-5-[3-(trifluoromethyl)pyrazol-1-yl]pyridine-3-carboxylic acid]: the “percentage damage caused to the plant, ZEAMX” value in the test on Zea mays (ZEAMX) [1] (1000 g/ha) is on record as 0; in the test with Zea mays (ZEAMX) [5] (1000 g/ha) it was 1 (1=0-20%). The “percentage damage caused to the plant, AMARE” value in test [9] (1000 g/ha) is reported as 0; in [10] (1000 g/ha), 2 (2=21-40%). Further, the “percentage damage caused to the plant, IPOHE” value in test [2] (1000 g/ha) is given as 4 (4=61-80%); in test [6] (1000 g/ha), 2 (2=21-40%). Moreover, the results for the “percentage damage caused to the plant, ECHCG” value in test [3] (1000 g/ha) and in [7] (1000 g/ha) were 1 (1=0-20%) and 0, respectively. For the same molecule, the “percentage damage caused to the plant, SEFTA” value in the test with Setaria faberi (SETFA) [4] (1000 g/ha) and in the test with Setaria faberi (SETFA) [8] (1000 g/ha) was 1 (1=0-20%) throughout. Besides, the “percentage damage caused to the plant, AMAPA” value in [11] (1000 g/ha) is 3 (3=41-60%); in test [12] (1000 g/ha) it was 0.
Regarding `CCn1c(C)c(-n2cc(Cl)cn2)c(=O)c(C(=O)O)c1-c1ccc(Cl)c(Cl)c1` [Compound 3, 5-(4-chloropyrazol-1-yl)-2-(3,4-dichlorophenyl)-1-ethyl-6-methyl-4-oxo-pyridine-3-carboxylic acid], the “percentage damage caused to the plant, ZEAMX” value was 0 in the test on Zea mays (ZEAMX) [1] (250 g/Ha) and 2 (2=21-40%) in the test with Zea mays (ZEAMX) [5] (250 g/Ha). Further, the results for the “percentage damage caused to the plant, AMARE” value in test [9] (250 g/Ha) and in test [10] (250 g/Ha) were 0 and 3 (3=41-60%), respectively. For the same molecule, the “percentage damage caused to the plant, IPOHE” value in [2] (250 g/Ha) is given as 0; in test [6] (250 g/Ha), 2 (2=21-40%). The “percentage damage caused to the plant, ECHCG” value was 3 (3=41-60%) in test [3] (250 g/Ha) and 1 (1=0-20%) in test [7] (250 g/Ha). Also, the figures for the “percentage damage caused to the plant, SEFTA” value with Setaria faberi (SETFA) [4] (250 g/Ha) and in the test on Setaria faberi (SETFA) [8] (250 g/Ha) were 3 (3=41-60%) and 2 (2=21-40%), respectively. Moreover, the “percentage damage caused to the plant, AMAPA” value was 3 (3=41-60%) in test [11] (250 g/Ha) and 0 in [12] (250 g/Ha).

(Values after patent US20250331519A1, “HERBICIDAL DERIVATIVES” (SYNGENTA CROP PROTECTION AG, priority 2022, published 2025).)
